Here are results for 29 compounds from patent US8063048B2, “Acetylenyl-pyrazolo-pyrimidine derivatives” (Hoffmann-La Roche Inc., priority 2005, dated 2011).

For orientation: melting point means the temperature of the solid-liquid transition. With `Cc1cc(C#Cc2cnn3c(C(F)(F)F)cc(-c4ccc(C(F)(F)F)cc4)nc23)ccn1` [Example 2, 3-(2-Methyl-pyridin-4-ylethynyl)-7-trifluoromethyl-5-(4-trifluoromethyl-phenyl)-pyrazolo[1,5-a]pyrimidine], the melting point was 206 °C.
The figure for `Cc1cc(-c2cc(C(F)F)n3ncc(C#Cc4cccc(S(N)(=O)=O)c4)c3n2)ccc1Cl` [Example 168, 3-[5-(4-Chloro-3-methyl-phenyl)-7-difluoromethyl-pyrazolo[1,5-a]pyrimidin-3-ylethynyl]-benzenesulfonamide] is 215 °C; for `NS(=O)(=O)c1cccc(C#Cc2cnn3c(C(F)(F)F)cc(-c4ccc(Cl)cc4)nc23)c1` [Example 99, 3-[5-(4-Chloro-phenyl)-7-trifluoromethyl-pyrazolo[1,5-a]pyrimidin-3-ylethynyl]-benzenesulfonamide] it is 290 to 293 °C.
The figure for `COc1ccc(C#Cc2cnn3c(C(F)F)cc(-c4ccc(C(F)(F)F)cc4)nc23)cc1S(=O)(=O)NC(C)(C)CO` [Example 43, 5-[7-Difluoromethyl-5-(4-trifluoromethyl-phenyl)-pyrazolo[1,5-a]pyrimidin-3-ylethynyl]-N-(2-hydroxy-1,1-dimethyl-ethyl)-2-methoxy-benzenesulfonamide] is 178 to 180 °C; for `CC(CO)(CO)NS(=O)(=O)c1cncc(C#Cc2cnn3c(C4CC4)cc(-c4ccc(C(F)(F)F)cc4)nc23)c1` [Example 80, 5-[7-Cyclopropyl-5-(4-trifluoromethyl-phenyl)-pyrazolo[1,5-a]pyrimidin-3-ylethynyl]-pyridine-3-sulfonic acid (2-hydroxy-1-hydroxymethyl-1-methyl-ethyl)-amide] it is 190 to 191 °C; for `CNS(=O)(=O)c1cccc(C#Cc2cnn3c(C(F)(F)F)cc(-c4ccc(C(F)(F)F)cc4)nc23)c1` [Example 130, N-Methyl-3-[7-trifluoromethyl-5-(4-trifluoromethyl-phenyl)-pyrazolo[1,5-a]pyrimidin-3-ylethynyl]-benzenesulfonamide] it is 213 to 214 °C.
`CC(CO)(CO)NS(=O)(=O)c1cncc(C#Cc2cnn3c(C4CC4)cc(-c4ccc(Cl)cc4)nc23)c1` [Example 68, 5-[5-(4-Chloro-phenyl)-7-cyclopropyl-pyrazolo[1,5-a]pyrimidin-3-ylethynyl]-pyridine-3-sulfonic acid (2-hydroxy-1-hydroxymethyl-1-methyl-ethyl)-amide]: the melting point was 204 to 206 °C.
Consider `Cc1cc(-c2ccc(Cl)cc2)nc2c(C#Cc3ccc(N)nc3)cnn12` [Example 295, 5-[5-(4-Chloro-phenyl)-7-methyl-pyrazolo[1,5-a]pyrimidin-3-ylethynyl]-pyridin-2-ylamine], for which the melting point was in the range of 244 to 246 °C.
Under `NS(=O)(=O)c1ccc(C#Cc2cnn3c(C(F)F)cc(-c4cccc(C(F)(F)F)c4)nc23)cc1` [Example 176, 4-[7-Difluoromethyl-5-(3-trifluoromethyl-phenyl)-pyrazolo[1,5-a]pyrimidin-3-ylethynyl]-benzenesulfonamide] stands 245 °C.
In turn, `Cc1cc(-c2ccc(C(F)(F)F)cc2)cn2c(C#Cc3ccc(N)nc3)cnc12` [Example 209, 5-[8-Methyl-6-(4-trifluoromethyl-phenyl)-imidazo[1,2-a]pyridin-3-ylethynyl]-pyridin-2-ylamine] yielded a melting point of 239 to 240 °C.
Under `NS(=O)(=O)c1ccc(C#Cc2cnn3c(C(F)(F)F)cc(-c4ccc(C(F)(F)F)cc4)nc23)cc1` [Example 36, 4-[7-Trifluoromethyl-5-(4-trifluoromethyl-phenyl)-pyrazolo[1,5-a]pyrimidin-3-ylethynyl]-benzenesulfonamide] stands 266 to 267 °C.
The figure for `Nc1ncc(C#Cc2cnc3c(F)cc(-c4ccc(C(F)(F)F)cc4)cn23)cn1` [Example 240, 5-[8-Fluoro-6-(4-trifluoromethyl-phenyl)-imidazo[1,2-a]pyridin-3-ylethynyl]-pyrimidin-2-ylamine] is 286 °C.
Under `NS(=O)(=O)c1cccc(C#Cc2cnn3c(C(F)F)cc(-c4cccc(C(F)(F)F)c4)nc23)c1` [Example 167, 3-[7-Difluoromethyl-5-(3-trifluoromethyl-phenyl)-pyrazolo[1,5-a]pyrimidin-3-ylethynyl]-benzenesulfonamide] stands 199 °C.
In the case of `Cc1cc(-c2cc(C(F)F)n3ncc(C#Cc4ccc(S(N)(=O)=O)s4)c3n2)ccc1Cl` [Example 172, 5-[5-(4-Chloro-3-methyl-phenyl)-7-difluoromethyl-pyrazolo[1,5-a]pyrimidin-3-ylethynyl]-thiophene-2-sulfonic acid amide], the melting point stood at 216 °C.
For `CC(=O)N(C(C)=O)c1ncc(C#Cc2cnn3c(C(F)(F)F)cc(-c4ccc(C(F)(F)F)cc4)nc23)cn1` [Example 244, N-Acetyl-N-{5-[7-trifluoromethyl-5-(4-trifluoromethyl-phenyl)-pyrazolo[1,5-a]pyrimidin-3-ylethynyl]-pyrimidin-2-yl}-acetamide], the melting point lay in the range of 253 to 254 °C.
Compound `Cc1ccc(C#Cc2cnn3c(C(F)(F)F)cc(-c4ccc(C(F)(F)F)cc4)nc23)cc1S(=O)(=O)NCCO` [Example 34, N-(2-Hydroxy-ethyl)-2-methyl-5-[7-trifluoromethyl-5-(4-trifluoromethyl-phenyl)-pyrazolo[1,5-a]pyrimidin-3-ylethynyl]-benzenesulfonamide] yielded a melting point of 174 to 175 °C.
The figure for `CCOc1cc(-c2cc(C(F)(F)F)n3ncc(C#Cc4cccc(S(=O)(=O)NC(C)(C)CO)c4)c3n2)ccc1C(F)(F)F` [Example 41, 3-[5-(3-Ethoxy-4-trifluoromethyl-phenyl)-7-trifluoromethyl-pyrazolo[1,5-a]pyrimidin-3-ylethynyl]-N-(2-hydroxy-1,1-dimethyl-ethyl)-benzenesulfonamide] is 209 to 211 °C.
`Oc1cncc(C#Cc2cnn3c(C(F)(F)F)cc(-c4ccc(C(F)(F)F)cc4)nc23)c1` [Example 58, 5-[7-Trifluoromethyl-5-(4-trifluoromethyl-phenyl)-pyrazolo[1,5-a]pyrimidin-3-ylethynyl]-pyridin-3-ol] gave a melting point of 258 to 260 °C.
Compound `FC(F)(F)c1ccc(-c2cc(C(F)(F)F)n3ncc(C#Cc4ccc(C5CC5)nc4)c3n2)cc1` [Example 10, 3-(2-Cyclopropyl-pyridin-5-ylethynyl)-7-trifluoromethyl-5-(4-trifluoromethyl-phenyl)-pyrazolo[1,5-a]pyrimidine] came in with a melting point of 138 to 140 °C.
The figure for `NC(=O)c1ccc(C#Cc2cnn3c(C(F)(F)F)cc(-c4ccc(C(F)(F)F)cc4)nc23)cc1` [Example 197, 4-[7-Trifluoromethyl-5-(4-trifluoromethyl-phenyl)-pyrazolo[1,5-a]pyrimidin-3-ylethynyl]-benzamide] is 260 °C; for `NS(=O)(=O)c1ccc(C#Cc2ncn3c(C(F)F)cc(-c4ccc(C(F)(F)F)cc4)nc23)s1` [Example 275, 5-[4-Difluoromethyl-2-(4-trifluoromethyl-phenyl)-imidazo[1,5-a]pyrimidin-8-ylethynyl]-thiophene-2-sulfonic acid amide] it is 223 °C.
The figure for `CNS(=O)(=O)c1ccc(C#Cc2cnn3c(C(F)F)cc(-c4ccc(C(F)(F)F)cc4)nc23)cc1` [Example 138, 4-[7-difluoromethyl-5-(4-trifluoromethyl-phenyl)-pyrazolo[1,5-a]pyrimidin-3-ylethynyl]-N-methyl-benzenesulfonamide] is 202 to 203 °C.
Under `NS(=O)(=O)c1cc(C#Cc2cnn3c(C(F)(F)F)cc(-c4ccc(C(F)(F)F)cc4)nc23)ccc1F` [Example 50, 2-Fluoro-5-[7-trifluoromethyl-5-(4-trifluoromethyl-phenyl)-pyrazolo[1,5-a]pyrimidin-3-ylethynyl]-benzenesulfonamide] stands 254 to 255 °C; under `COc1ncc(S(=O)(=O)NC(C)(CO)CO)cc1C#Cc1cnn2c(C(F)(F)F)cc(-c3ccc(C(F)(F)F)cc3)nc12` [Example 25, 6-Methoxy-5-[7-trifluoromethyl-5-(4-trifluoromethyl-phenyl)-pyrazolo[1,5-a]pyrimidin-3-ylethynyl]-pyridine-3-sulfonic acid (2-hydroxy-1-hydroxymethyl-1-methyl-ethyl)-amide], 233 to 235 °C.
`COc1ncc(S(=O)(=O)NC(C)(C)CO)cc1C#Cc1cnn2c(C(F)(F)F)cc(-c3ccc(C(F)(F)F)cc3)nc12` [Example 18, 6-Methoxy-5-[7-trifluoromethyl-5-(4-trifluoromethyl-phenyl)-pyrazolo[1,5-a]pyrimidin-3-ylethynyl]-pyridine-3-sulfonic acid (2-hydroxy-1,1-dimethyl-ethyl)-amide] showed a melting point of 209 to 210 °C.
For `N#Cc1ccc(C#Cc2cnn3c(C(F)(F)F)cc(-c4ccc(C(F)(F)F)cc4)nc23)cn1` [Example 288, 5-[7-Trifluoromethyl-5-(4-trifluoromethyl-phenyl)-pyrazolo[1,5-a]pyrimidin-3-ylethynyl]-pyridine-2-carbonitrile], the melting point was determined as 212 °C.
Take `NS(=O)(=O)c1ccc(C#Cc2cnn3c(C(F)F)cc(-c4cccc(C(F)(F)F)c4)nc23)s1` [Example 160, 5-[7-Difluoromethyl-5-(3-trifluoromethyl-phenyl)-pyrazolo[1,5-a]pyrimidin-3-ylethynyl]-thiophene-2-sulfonic acid amide]: the melting point turned out to be 225 °C.
Under `CC(C)(CO)NS(=O)(=O)c1cncc(C#Cc2cnn3c(C(F)(F)F)cc(-c4ccc(C(F)(F)F)cc4)nc23)c1` [Example 11, 5-[7-Trifluoromethyl-5-(4-trifluoromethyl-phenyl)-pyrazolo[1,5-a]pyrimidin-3-ylethynyl]-pyridine-3-sulfonic acid (2-hydroxy-1,1-dimethyl-ethyl)-amide] stands 226 to 227 °C.
Under `CN(C)CCNS(=O)(=O)c1cc(C#Cc2cnn3c(C(F)F)cc(-c4ccc(C(F)(F)F)cc4)nc23)c(F)cc1F` [Example 134, 5-[7-Difluoromethyl-5-(4-trifluoromethyl-phenyl)-pyrazolo[1,5-a]pyrimidin-3-ylethynyl]-N-(2-dimethylamino-ethyl)-2,4-difluoro-benzenesulfonamide] stands 165 to 166 °C.
